How the values were obtained:
pig sperm = experiment: Pig artificial insemination with treated semen, sex of offspring; format: in vivo; conditions: semen treated in modified HTF medium pH 7.8, R848 3 nM, 60 minutes, 37° C.
Experimental: Pig semen diluted to 5 billion/100 mL with Hiro Swine B solution was centrifuged (500 G, 5 minutes, room temperature), and then the supernatant was discarded. The pig sperm were suspended in the same amount of modified HTF medium (pH 7.8, supplemented with R848 (3 nM)), and then cultured in a thermostat (60 minutes, 37° C.). Thereafter, centrifugation (500 G, 5 minutes, room temperature) was carried out, and the supernatant was discarded. Subsequently, the sperm were suspended in a diluent for artificial insemination, and then subjected to artificial insemination.

mouse sperm [1] = experiment: Mouse in vitro fertilization with treated sperm, sex of blastocyst embryos by real-time PCR; format: cell-based; conditions: sperm treated with R848 3 nM
Experimental: Sperm were collected from the cauda epididymis of 12-week-old mature male mice. The mouse sperm were cultured in modified HTF medium (Glu medium, pH 7.8, supplemented with R848 (3 nM)) (60 minutes, 37° C.). In vitro fertilization was performed using sperm cultured in the same manner as in Experiment 7. Five days later, sperm that reached blastocyst embryos were collected, and the ratio between X-sperm and Y-sperm was calculated by real-time PCR.

mouse sperm [2] = experiment: Mouse artificial insemination with treated sperm, sex of blastocyst embryos; format: in vivo; conditions: sperm treated with R848 3 nM, Glu medium pH 7.8, 60 minutes, 5/6 embryos
Experimental: Sperm were collected from the cauda epididymis of 12-week-old mature male mice. The mouse sperm were cultured in modified HTF medium (Glu medium, pH 7.8, supplemented with R848 (3 nM)) (60 minutes, 37° C.). Sperm cultured in the same manner as in Experiment 7 were subjected to artificial insemination, and the resulting blastocyst embryos were collected. As a result, 83.3% (5/6) of the embryos were female embryos.

bovine sperm [3] = experiment: Acrosome retention rate of bovine sperm after culture and swim-up; format: cell-based; conditions: freeze-thawed bovine sperm, Glu medium pH 7.7, R848 3 nM, 30 minutes room temperature, swim-up from 1% PVP 15 minutes; FIG. 7
Experimental: Freeze-thawed bovine sperm, thawed and washed in modified HTF medium, were cultured in modified HTF medium (Glu medium, pH 7.7, supplemented with R848 (3 nM)) (30 minutes, room temperature). Centrifugation was carried out, and then the supernatant was discarded. Subsequently, the sperm were resuspended in modified HTF medium supplemented with 1% PVP and R848 (3 nM), and then placed under PVP-free modified HTF medium to form a lower layer. Fifteen minutes later, 1.5 mL of the upper layer and 0.5 mL of the lower layer were collected. Each layer was subjected to acrosome staining, and the acrosome retention rate was determined.

bovine sperm [4] = experiment: X-sperm/Y-sperm ratio of bovine lower-layer sperm by fluorescence in situ hybridization; format: cell-based; conditions: freeze-thawed bovine sperm, Glu medium pH 7.7, R848 3 nM, swim-up, FISH, FIG. 8
bovine sperm [5] = experiment: Bovine in vitro fertilization with upper-layer sperm, sex identification of blastocyst embryos by real-time PCR; format: cell-based; conditions: modified HTF medium pH 7.4, R848 3 nM, 30 minutes room temperature, FIG. 9
Experimental: Freeze-thawed bovine sperm, thawed and washed in modified HTF medium, were cultured in modified HTF medium (pH 7.4, supplemented with R848 (3 nM)) (30 minutes, room temperature). Centrifugation was carried out, and then the supernatant was discarded. Subsequently, the sperm were resuspended in modified HTF medium supplemented with 1% PVP and R848 (3 nM), and then placed under PVP-free modified HTF medium to form a lower layer. Fifteen minutes later, 1.5 mL of the upper layer was collected, washed, and then subjected to in vitro fertilization. Thereafter, the resulting blastocyst embryos were subjected to sex identification by real-time PCR.

[6] = blastocyst embryos after five days, Glu medium pH 7.8, 22 individuals

## CCOCc1nc2c(N)nc3ccccc3c2n1CC(C)(C)O [R848, resiquimod]
Pig sperm
  Female ratio: 64%
Pig sperm; 36 individuals
  Female (number of individuals): 23
  Male (number of individuals): 13
Mouse sperm [1]; [6]
  Female (number of embryos): 17
  Male (number of embryos): 5
Mouse sperm [1]; blastocyst embryos, Glu medium pH 7.8
  Female ratio: 77%
Mouse sperm [2]
  female embryos among blastocyst embryos: 83.3%
Bovine sperm [3]
  acrosome retention rate of the sperm in the upper layer: 70%
Bovine sperm [4]
  Y-sperm among the sperm in the lower layer: 84%
Bovine sperm [5]
  XX embryos (female embryos) among blastocyst embryos: 91%

Source: US20250115865A1, “MAMMALIAN SPERM PREPARATION METHOD, ARTIFICIAL INSEMINATION METHOD, IN-VITRO FERTILIZATION METHOD, AND MEDIUM” (Hiroshima University, priority 2022, published 2025)
